# Test system: mESC Bmi1-luciferase reporter, firefly/renilla ratio, 24 h
# Test: Bmi1-luciferase reporter activators in mESC, dose response, esBAF inhibitor project, mouse embryonic stem cells, cherry-pick (AID 651717);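 further: luciferase knocked into Bmi1 locus with EF-1a renilla as cell number control; rising ratio signals esBAF inhibition which derepresses Bmi1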
row,Structure (SMILES),AC40
1,Cc1cc(NC(=O)CC2CCCC2)ccc1Br,11.8 µM
2,O=C(Cc1c(O)c2ccccc2oc1=O)c1ccc(F)cc1,2 µM
3,Fc1ccc2nc(-c3ccccc3)ccc2c1,1.14 µM
4,CCC(=O)Nc1nc(-c2ccc3c(c2)CC(C)N3S(C)(=O)=O)cs1 (configuration not stated),7.5 µM
5,Cc1ccc(NC(=O)O/N=C/c2ccc(N(C)C)cc2)cc1,16.6 µM
6,O=c1/c(=C\c2cccnc2)sc2nc3ccccc3n12,9.85 µM
7,COc1ccc(-c2csc(Nc3cc(C)ccn3)n2)cc1C,1.91 µM
8,COc1ccc(-c2csc(C(O)c3ccccc3)n2)cn1 (configuration not stated),9.65 µM
9,O=C(c1ccc2ccccc2c1)N1CCc2ccccc21,8.41 µM
10,O=C(Cn1cc(C(F)(F)F)cc(Cl)c1=O)NCc1ccc(F)cc1,7.38 µM
11,COc1ccc(-c2csc(Nc3cccc(C)n3)n2)cc1OC,1.44 µM
12,Cc1ccnc(NCc2cc(C)ccc2O)c1,12.8 µM
13,O=C(CC(=O)c1ccccc1)Nc1ccccc1,3.94 µM
14,Cc1cc(N2CCOCC2)nc2ccc(NC(=O)CCC(=O)N3CCN(c4ccccc4F)CC3)cc12,4.59 µM
15,Cc1ccc(C(=O)CC(=O)c2ccccc2C)c(O)c1,9.56 µM
16,CNC(=O)c1ccc(-c2ccccc2)s1,5.62 µM
17,O=C(O)CCc1ccc(-c2ccc(Br)cc2)n1-c1cccc(O)c1,10.8 µM
18,Cc1cc(Br)ccc1OCc1nc(-c2cccnc2)no1,9.06 µM
19,CCc1c(C)sc(NC(=O)c2cccs2)c1C(N)=O,2.66 µM
20,COc1cc(/C=C/c2ccccc2)cc(OC)c1,2.93 µM
21,COc1ccc(-c2coc3cc(OC(C)=O)ccc3c2=S)cc1,0.794 µM
22,N#Cc1ccc(-c2cn3c(n2)SCC3)cc1,4.82 µM
23,COc1cccc(Nc2nc(-c3sc(C)nc3C)cs2)c1,8.61 µM
24,O=C(Nc1ccc(Cl)cc1Cl)c1csc(-c2cccnc2)n1,6.82 µM
25,CCS(=O)(=O)N1Cc2ccccc2CC1C(=O)Nc1cccc(OC)c1 (configuration not stated),8.28 µM

row,Structure (SMILES),AC40
1,CCCCN(C(=O)CSc1nnc(Nc2ccc(C)c(C)c2)s1)c1c(N)n(Cc2ccccc2)c(=O)[nH]c1=O,12.4 µM
2,O=C(Nc1ccc(F)cc1)c1ccccc1,7.36 µM
3,COc1ccc(/C=C/C(=O)Oc2cccc(/C=N/NC(=O)Cc3ccc(Br)cc3)c2)cc1,4.57 µM
4,Oc1ccc(/C=N/Nc2nc(-c3cccnc3)nc3ccccc23)c(O)c1,11.2 µM
5,O=S(=O)(c1ccc2ccccc2c1)N1CCN(S(=O)(=O)c2c(F)cccc2F)CC1,1.26 µM
6,O=C(Nc1ccc2c(c1)OCO2)c1cnc(Cl)c(Cl)c1,1.74 µM
7,C=CCn1c(-c2ccc(N)cc2)nc2ccccc21,0.806 µM
8,CCc1cc(CNC(=O)c2cc(COc3ccc(C)nc3)on2)on1,6.87 µM
9,COC(=O)C(Cc1ccc(OC(=O)c2ccc(Cl)cc2)cc1)N1Cc2ccccc2C1=O (configuration not stated),3.13 µM
10,O=C(Nc1cccnc1Cl)c1cc(-c2ccccc2O)on1,1.09 µM
11,CC(=O)Oc1ccc(-c2cc3ccccc3oc2=O)cc1,3.22 µM
12,O=C(Nc1ccccn1)c1ccc(Cl)c(S(=O)(=O)N2CCCC2)c1,14.6 µM
13,CCC(=O)c1ccc(N2CCCC2)c(F)c1,6.47 µM
14,CCCC(=O)Nc1ccc2c(c1)C(=O)N(C)C[C@H](OC)[C@@H](C)CN(Cc1ccc(-c3ccccn3)cc1)[C@@H](C)CO2,8.13 µM
15,CCCNC(=O)Nc1ccc2c(c1)C(=O)N(C)C[C@H](OC)[C@@H](C)CN(Cc1ccc(-c3ccccn3)cc1)[C@H](C)CO2,1.73 µM
16,Cc1ccc(OCn2c(=O)sc3ccccc32)cc1,6.12 µM
17,Fc1ccccc1NC(=S)N1CCC(c2ccccc2)C1 (configuration not stated),0.517 µM
18,Cc1ccc(Cl)c2c(N=Nc3ccccc3)c(O)[nH]c12,0.93 µM
19,CN(Cc1cccnc1)C(=O)c1cc(COc2ccc3c(c2)CCCC3)on1,0.9 µM
20,O=C(Nc1ccc2c(c1)C(=O)c1ccccc1-2)c1ccccc1,1.08 µM
21,Nc1cc2c3ccccc3ccc2c2ccccc12,2.47 µM
22,C=CCn1cccc(C(=O)Nc2ccc(Cl)cc2)c1=O,3.88 µM
23,COc1ccccc1CNC(=O)C[C@H]1CC[C@@H]2[C@H](COC[C@H](O)CN2C(=O)Nc2ccc(Cl)cc2)O1,14.1 µM
24,Cc1cccc(-c2noc(Cc3ccccc3)n2)c1,2.87 µM
25,CO[C@H]1CN(C)C(=O)c2cc(NC(=O)NC(C)C)ccc2OC[C@H](C)N(Cc2ccc(-c3ccccn3)cc2)C[C@@H]1C,0.871 µM

row,Structure (SMILES),AC40
1,COc1ccc(NC(=O)c2cc(-c3cccs3)on2)cc1,3.06 µM
2,Cc1ccc(NC(=O)c2ccc3c(=O)n4c(nc3c2)CCC4)cc1F,0.945 µM
3,O=C1CC(/C=C/c2ccncc2)=Nc2ccccc2N1,6.57 µM
4,Cc1cccc(-n2nnc(C(=O)Nc3ccc(F)cc3)c2N)c1,0.798 µM
5,COc1cccc(NC(=O)CN(C)C(=O)CNC(=O)c2sc3ccccc3c2Cl)c1,4.99 µM
6,CCCCNc1ccc2c(c1)C1CC2CCN1C(=O)OCc1ccccc1 (configuration not stated),4.73 µM
7,C=CCN(C(=O)C1CC(=O)N(C2CCCC2)C1)c1nc(-c2ccc(S(C)(=O)=O)cc2)cs1 (configuration not stated),34.4 µM
8,Fc1ccc(CSc2ccc(-c3cccs3)nn2)cc1,5.03 µM
9,COc1cc(/C=C/c2ccc(O)cc2)cc(OC)c1,2.31 µM
10,COc1ccc(/C=N/NC(=O)Cc2cccs2)cc1,8.51 µM
11,COc1ccc(F)cc1-c1cc(C(=O)Nc2cccnc2)[nH]n1,3.06 µM
12,CC(=O)Oc1ccc2cc(-c3ccccc3)c(=O)oc2c1,4.46 µM
13,Cn1c2ccccc2c(=O)c2cc(C#Cc3ccsc3)ccc21,1.08 µM
14,CCN(CC)C(=O)c1nc(-c2cccc3ccccc23)no1,13.1 µM
15,CC(=O)Nc1ccc2nc(SCC(=O)Nc3ccc(N4CCOCC4)c(Cl)c3)sc2c1,3.57 µM
16,c1ccc(-c2csc(Nc3cccnc3)n2)nc1,4.74 µM
17,Cc1cccc(COc2ccc(/C=N/NC(=O)c3nnn(-c4nonc4N)c3CN3CCCCC3)cc2)c1,34.2 µM
18,CCCN1C[C@@H](C)[C@H](OC)CN(C)C(=O)c2cc(NC(=O)c3ccccc3F)ccc2OC[C@H]1C,5.77 µM
19,CSCc1nc2sc(C(=O)Nc3nc(C)cs3)c(C)c2c(=O)[nH]1,4.19 µM
20,O=C(Nc1nc2ccc(Cl)cc2s1)c1cccc(N2C(=O)CCC2=O)c1,3.25 µM
21,N#Cc1ccc(Nc2nc(-c3ccccc3)cs2)cc1,3.97 µM
22,COc1cccc(N(C(=O)c2cccs2)c2nc3ccccc3s2)c1,3.76 µM
23,COc1ccc(C(=O)Nc2ccc3nc(C)c(C)nc3c2)cc1,8.3 µM
24,OC(c1ccccc1)c1nc(/C=C/c2ccccc2)cs1 (configuration not stated),4.88 µM
25,COC(=O)c1ccc(CN2C(=O)NC3(CCCCC3)C2=O)cc1,7.87 µM

row,Structure (SMILES),AC40
1,COc1ccc(-c2nc(C#N)c(NC(C)C)o2)cc1,2.38 µM
2,CCSc1nnc(NC(=O)c2ccc3nc[nH]c3c2)s1,12.7 µM
3,Cc1ccc(N=Nc2cc(C)ccc2O)c(C)c1,3.74 µM
4,Cc1ccc(NC(=O)CN(C)S(=O)(=O)c2cccs2)cc1C,2.98 µM
5,CS(=O)(=O)c1ccc2nc(NC(=O)c3ccccc3Br)sc2c1,6.16 µM
6,Oc1cccc(Nc2nc(O)c(/C=C3\C=Nc4ccccc43)s2)c1,4.88 µM
7,Nc1n[nH]c(N)c1N=Nc1ccc(Cl)cc1,6.31 µM
8,Cc1cccc(NC(=O)c2c(O)c3ccccc3[nH]c2=O)c1,0.371 µM
9,C/C(=N\NC(=O)c1cccs1)c1ccc2ccccc2c1,12 µM
10,O=C1C(=C2CCc3ccccc32)Cc2ccccc21,0.363 µM
11,Nc1ccc(C#Cc2ccc3c(=O)c4ccccc4oc3c2)cc1,3.64 µM
12,Cc1ccc(NC(=O)C2CCCN(c3ncccn3)C2)cc1C (configuration not stated),4.21 µM
13,C=CCNc1nc(Cl)nc(Nc2ccccc2)n1,0.936 µM
14,Cc1[nH]c2ccccc2c(=O)c1CN(C)Cc1ccccc1,10.4 µM
15,CCn1cnc2cc(NCc3ccccc3Cl)ccc21,3.92 µM
16,CO[C@H]1CN(C)C(=O)c2cc(NC(=O)Nc3ccc4c(c3)OCO4)ccc2OC[C@@H](C)NC[C@H]1C,8.26 µM
17,Cc1noc(C)c1C(=O)Nc1nc2ccccc2s1,3.83 µM
18,COc1ccc(-c2cn3c(C)c(C(=O)NC(C)(C)C)sc3n2)cc1,1.02 µM
19,COc1ccccc1C(=O)Nc1cccc2cccnc12,13.9 µM
20,C=CCn1c(=O)c(C(=O)Nc2ccc(C)cc2)c(O)c2ccccc21,13.1 µM
21,N#Cc1c(/N=C/c2cccs2)sc2c1CCC2,0.897 µM
22,C(=N\N1CCN(c2ccccc2)CC1)/c1ccccc1,4.79 µM
23,Nc1nc(-c2cccc(F)c2)cs1,6.13 µM
24,Cc1ccc(C(=O)Nc2ccc(Br)c(C(F)(F)F)c2)cc1,1.73 µM
25,COc1ccc(Nc2ccc3ccccc3c2)cc1,1.13 µM

row,Structure (SMILES),AC40
1,O=C(NC1CCCCC1)c1n[nH]c2c1CC(c1ccccc1)CC2 (configuration not stated),0.996 µM
2,COc1ccc2c(CN(C)Cc3ccccc3)cc(=O)oc2c1,0.841 µM
3,O=C(Nc1ccc(Oc2cccnc2)cc1)c1ccccc1F,12.7 µM
4,CC(C)c1ccc(CNNC(=O)c2ccccc2)cc1,2.18 µM
5,COc1cc(CNc2ccc(N3CCN(C(C)=O)CC3)cc2)ccc1OCc1ccc(F)cc1,3.93 µM
6,CO[C@@H]1CN(C)C(=O)c2cc(NC(=O)c3nc4ccccc4s3)ccc2OC[C@@H](C)N(Cc2cccnc2)C[C@H]1C,19.8 µM
7,COc1ccc(-c2csc(C(C)(O)c3ccccc3)n2)cc1 (configuration not stated),14.9 µM
8,Cc1ccnc(NC(=O)CCCc2ccccc2)c1,5.74 µM
9,COc1cccc(-c2cc(C(=O)NC3CCCCC3)no2)c1,1.71 µM
10,c1ccc(Oc2cc(-c3ccccc3)ncn2)cc1,2.16 µM
11,Clc1ccc(/C=N/Nc2nc(Cl)nc3ccccc23)cc1,1.35 µM
12,c1ccc2nc3c(ccc4ccccc43)cc2c1,0.939 µM
13,Cc1ccc(OCc2cc(C(=O)NCCc3cccnc3)no2)cc1C,11.9 µM
14,CS(=O)(=O)N1CCN(c2nc3ccccc3s2)CC1,1.24 µM
15,COc1cccc(C(=O)Nc2ccc(Cl)c(C(F)(F)F)c2)c1,5.59 µM
16,CO[C@H]1CN(C)C(=O)c2cc(NC(=O)NC(C)C)ccc2OC[C@@H](C)N(Cc2ccc(-c3ccccn3)cc2)C[C@@H]1C,22.6 µM
17,COCOc1ccc(-c2cc(=O)c3c(O)cc(OCOC)cc3o2)cc1,8.4 µM
18,O=C(Nc1ccc(SC(F)F)cc1)c1ccc2c(=O)n3c(nc2c1)CCC3,2.02 µM
19,COc1ccc2[nH]c(=O)c(CNc3cccc(C)c3)cc2c1,12.9 µM
20,CCCC1(C)Nc2ccccc2-c2nc3ccccc3n21 (configuration not stated),11.3 µM
21,Fc1ccc(Nc2nnc(-c3ccncc3)s2)cc1Cl,4.42 µM
22,CCCc1nc2c3ccccc3ccn2c1Cc1ccc(C)cc1,0.443 µM
